This is an account of results in article PMC8197120, “Synthesis and Characterization of Some New Quinoxalin-2(1H)one and 2-Methyl-3H-quinazolin-4-one Derivatives Targeting the Onset and Progression of CRC with SAR, Molecular Docking, and ADMET Analyses” (Molecules, 2021).

Data set [1] deals with purified recombinant human LDHA protein (Homo sapiens, UniProt P00338). The experiment in a line: Lactate dehydrogenase-A (LDHA) inhibition assay, NADH consumption. The format is biochemical. Particulars: for inhibition at 100 µg/mL / inhibition at 200 µg/mL / IC50: LDHA; for inhibition at 100 µg/mL: read-out: Mean Inhibition % at 100 µg/ml ± SD; for inhibition at 200 µg/mL: read-out: Mean Inhibition % at 200 µg/ml ± SD. As to the method:
LDHA inhibition activity was investigated by measuring the amounts of consumed NADH as described by Kim and his group. Briefly, different concentrations of each compound (50, 100, 200, and 300 µg) were incubated in buffer containing 20 mM of HEPES-K+ (pH 7.2), 20 μM of NADH, 2 mM of pyruvate, and 10 ng of purified recombinant human LDHA protein for 10 min. The fluorescence of NADH, which has an excitation wavelength of 340 nm and emission wavelength of 460 nm, was detected using a Spectrofluorometer.

Data set [2] relates to Escherichia coli (ATCC 25922). The experiment in a line: Antibacterial activity, CFU viability. The format is cell-based. Particulars: ATCC25922, mean of two determinations, read-out: Mean IC50 ± SD. As to the method: (§1) Pure standard microbial isolates collected from King Khaled University Hospital were tested in this study, including Enterococcus faecalis (ATCC 29122) as Gram positive bacteria and Escherichia coli (ATCC 25922) and Bacteroides fragilis (ATCC 25285) as Gram negative bacteria. Fresh cultures of each microorganism were grown on nutrient agar plates (Oxoid, UK), of which small inoculums were suspended in 5 mL nutrient broth for bacterial suspension preparation of 0.5MacFarland. Bacterial viability was investigated by estimating the colony-forming unit (CFU) ability of the bacteria incubated at different time intervals without or with appropriate amounts of the compound that were mixed with 2 × 10^7 CFU/mL in sterile BHI broths and were incubated under shaking for 60 min at 37 °C. Samples were serially diluted into sterile BHI broths, streaked onto media agar plates, and incubated for 24 h at 37 °C. The antibacterial potency of tested compounds was expressed as the residual number of CFU with reference to the initial inoculums. […] Ampicillin (1 mg/mL) was used as a positive standard reference.

The test system of data set [3] is Bacteroides fragilis (ATCC 25285). Description: Antibacterial activity, CFU viability. Format: cell-based. Particulars: ATCC25285, mean of two determinations, read-out: Mean IC50 ± SD. As to the method: as §1
In data set [4] the test system is Enterococcus faecalis (ATCC 29122). Description: Antibacterial activity, CFU viability. The format is cell-based. Particulars: ATCC29122, mean of two determinations, read-out: Mean IC50 ± SD. How it is done:
as §1

A further data set has as its target T1, COX-2 (Homo sapiens, UniProt P35354).
T1 construct: purchased Cayman Chemical Company 701080
T1 sequence (P35354 18-604): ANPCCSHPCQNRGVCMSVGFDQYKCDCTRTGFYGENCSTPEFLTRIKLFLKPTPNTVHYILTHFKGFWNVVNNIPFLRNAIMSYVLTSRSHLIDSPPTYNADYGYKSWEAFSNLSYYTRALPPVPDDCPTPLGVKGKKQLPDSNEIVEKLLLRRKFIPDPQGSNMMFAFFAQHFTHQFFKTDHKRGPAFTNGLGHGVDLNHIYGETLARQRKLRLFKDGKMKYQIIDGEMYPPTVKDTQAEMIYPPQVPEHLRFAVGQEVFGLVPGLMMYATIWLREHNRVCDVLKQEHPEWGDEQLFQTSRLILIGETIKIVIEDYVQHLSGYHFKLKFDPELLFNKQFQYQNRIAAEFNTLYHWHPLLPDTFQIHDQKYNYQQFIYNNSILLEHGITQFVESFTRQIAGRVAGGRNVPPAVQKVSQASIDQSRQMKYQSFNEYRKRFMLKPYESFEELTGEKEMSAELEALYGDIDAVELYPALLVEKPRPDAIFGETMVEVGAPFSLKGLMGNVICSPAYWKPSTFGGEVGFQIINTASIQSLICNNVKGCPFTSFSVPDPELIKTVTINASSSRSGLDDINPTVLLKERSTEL
The experiment in a line: Cyclooxygenase (COX-2) inhibition assay (Cayman kit 701080). Particulars: for inhibition at 100 µg/mL: read-out: Mean Inhibition % at 100 µg/ml ± SD; for inhibition at 200 µg/mL: read-out: Mean Inhibition % at 200 µg/ml ± SD. Format: biochemical. As to the method:
The compounds were resuspended in 100% DMSO at a final concentration of 10 mg/mL. […] The inhibitory activity was expressed as the inhibition percentage, which was determined by comparison with a control experiment. IC50 values were deduced from the curves.

A short description of data set [5]: In vitro cytotoxicity assay (LDH release). The format is cell-based, human. Particulars: human. As to the method: (§2) The best-in-class compounds, including (4c), (4d), (6a), (6b), (6d), (6e), and (6g), which were recognized as antimicrobial and enzymatic inhibitors, were further examined for their cytotoxic effects on LoVo and HCT-116 cells of human colon cancer. This was carried out by determining the residual percentages of viable cells after being treated with the compounds at different concentrations (50, 100, 200, and 400 µg/mL), using triton X-100 (at concentration of 0.1%) in the assay medium and the assay as the positive and negative controls, respectively.
(§3) Samples were diluted in Dulbecco’s modified Eagles medium, consisting of 10% fetal bovine serum, added to cells grown and cultured for 24 h in a 5% CO2-humidified incubator at 37 °C. Then, the activity of lactate dehydrogenase released from damaged cells was determined in the collected supernatant aliquots using an ELISA end-point assay (Benchmark Plus, Bio-Rad, CA, USA). The 0.1% Triton X-100 in the assay medium and the assay medium only were used as positive and negative controls, respectively. Cell viability, expressed as a relative percentage of the OD values (at 550 nm) for compound-treated cells (final concentration of 200 µg) and the control, is shown as mean ± SD (n = 2).

The subject of a further data set is LoVo cells. The experiment in a line: In vitro cytotoxicity assay (LDH release). The format is cell-based, human. As to the method:
as §2, §3

The test system of the next data set is HCT-116 cells. The experiment in a line: In vitro cytotoxicity assay (LDH release). The format is cell-based, human. How it is done: as §2, §3
A general note: Release of lactate dehydrogenase indicates damage to the cell membrane.

[6] abbreviates: HCT-116 colon cancer cells, read-out: Mean % Cell Viability ± SD CRC-HCT-116 cells.
Setting [7] is: LoVo colon cancer cells, read-out: Mean % Cell Viability ± SD CRC-LoVo cells.

As usually defined, the IC50 is the point on the concentration scale where inhibition reaches its midpoint. The term viability denotes a per cent measure of how many cells are alive, often set against a control.

Values after ≈ are worked out from the molar mass of the structure shown. Where two headings read alike, the source gives them in different places.

On to `COc1cc2nc(C)n(N=Cc3ccc(OCc4ccccc4)c(OC)c3)c(=O)c2cc1OC` [Compound 6d, 3-[(4-Benzyloxy-3-methoxy-benzylidene)-amino]-6,7-dimethoxy-2-methyl-3H-quinazolin-4-one], for which the “fold by which (6e) is more potent than the labelled compound (LDHA inhibition efficiency)” value in data set [1] (200 µg/mL, comparator 6e) stood at 1.7 fold. Also, the values for the inhibition at 100 µg/mL (in data set [1]; on COX-2) were 31.2 ± 1.63% and 50.2%, respectively. The inhibition at 200 µg/mL in data set [1] turned out to be 44.4 ± 3.39%; at COX-2, 97.5%. Also, the IC50 in data set [2] is 18.4 ± 1.27 µg/mL (≈ 40 µM); in data set [3], 9 ± 0.99 µg/mL (≈ 19.6 µM); in data set [4], 15.2 ± 0.919 µg/mL (≈ 33 µM); at COX-2 it was 215 µM. The viability at 24 h, 200 µg/mL in data set [5] (setting [6]) is 18.5%; in data set [5] (setting [7]) it was 26.8%. In addition, the 50% inhibitory concentration (IC50) at 24 h came out at 100 µg/mL (≈ 218 µM) in data set [5] (HCT-116 human colon cancer cells, HCT-116 cells) and 128 µg/mL (≈ 277 µM) in data set [5] (LoVo human colon cancer cells, LoVo cells).

`COc1cc2nc(C)n(N=Cc3ccc(C(=O)O)cc3)c(=O)c2cc1OC` [Compound 6b, 4-[(6,7-Dimethoxy-2-methyl-4-oxo-4H-quinazolin-3-ylimino)-methyl]-benzoic acid]: the inhibition at 100 µg/mL worked out at 32 ± 2.55% in data set [1] and 37.1 ± 2.69% at COX-2. In addition, the inhibition at 200 µg/mL in data set [1] is 49.2%; at COX-2, 69 ± 2.76%. Further, the IC50 in data set [2] came out at 18.2 ± 0.99 µg/mL (≈ 49.5 µM); in data set [3], 10.3 ± 1.2 µg/mL (≈ 28.2 µM); in data set [4] it was 12.7 µg/mL (≈ 34.4 µM). For the same molecule, the viability at 24 h, 200 µg/mL in data set [5] (setting [6]) turned out to be 47 ± 2.83%; in data set [5] (setting [7]) it was 54.2 ± 2.47%.

As for `COc1cc2nc(C)n(N=Cc3cc(OC)c(O)c([N+](=O)[O-])c3)c(=O)c2cc1OC` [Compound 6a, 3-[(4-Hydroxy-3-methoxy-5-nitro-benzylidene)-amino]-6,7-dimethoxy-2-methyl-3H-quinazolin-4-one], the IC50 in data set [1] is 248 µM; in data set [2], 7.9 ± 0.849 µg/mL (≈ 19.1 µM); in data set [3], 10.9 ± 0.566 µg/mL (≈ 26.3 µM); in data set [4], 13.8 ± 0.495 µg/mL (≈ 33.4 µM); against COX-2, 293 µM. Further, the values for the inhibition at 100 µg/mL (in data set [1]; on COX-2) were 62.5% and 42.9 ± 2.97%, respectively. For the same molecule, the inhibition at 200 µg/mL in data set [1] amounted to 89.7%; at COX-2, 83%. Also, the figures for the viability at 24 h, 200 µg/mL in data set [5] (setting [6]) and in data set [5] (setting [7]) were 91.2 ± 3.11% and 92.2 ± 2.62%, respectively.

As for `O=C(O)c1ccc(/C=N/Nc2nc3ccccc3[nH]c2=O)cc1` [Compound 4d, 4-[(3-Oxo-3,4-dihydro-quinoxalin-2-yl)-hydrazonomethyl]-benzoic acid], the half-inhibitory concentration (IC50) in data set [1] was 362 µM; in data set [2] it was 30.6 ± 2.62 µg/mL (≈ 99.1 µM); in data set [3] it was 28.2 ± 1.77 µg/mL (≈ 91.6 µM); in data set [4], 10.8 µg/mL (≈ 35 µM). The inhibition at 100 µg/mL in data set [1] worked out at 47.4 ± 3.96%; at COX-2, 14.4 ± 0.778%. The inhibition at 200 µg/mL in data set [1] amounted to 85%; on COX-2, 28.9%. Moreover, the viability at 24 h, 200 µg/ml in data set [5] (setting [6]) came to 65.5 ± 3.54%; in data set [5] (setting [7]), 60 ± 4.24%.

Triton X-100 [reference compound]: the “Mean % Cell Viability, positive control” value in the data set on LoVo cells and with HCT-116 cells was 0.00% in each case.

As for `CCc1ccc(C=Nn2c(C)nc3ccc(F)cc3c2=O)s1` [Compound 6g, 3-[(5-Ethyl-thiophen-2-ylmethylene)-amino]-6-fluoro-2-methyl-3H-quinazolin-4-one], the IC50 in data set [1] was 334 µM; in data set [2], 24.8 ± 1.77 µg/mL (≈ 78.5 µM); in data set [3] it was 19.9 ± 2.26 µg/mL (≈ 63.1 µM); in data set [4], 17.2 ± 1.77 µg/mL (≈ 54.7 µM). In addition, the inhibition at 100 µg/mL in data set [1] is 53.6%; at COX-2, 28.8 ± 2.47%. In addition, the inhibition at 200 µg/mL turned out to be 89.8% in data set [1] and 48.6 ± 3.75% on COX-2. The values for the viability at 24 h, 200 µg/mL in data set [5] (setting [6]) and in data set [5] (setting [7]) were 86.5 ± 2.12% and 88.2 ± 2.62%, respectively.
